Data: patent US7989422B2, “Antibacterial agents” (Alchemia Limited, priority 2005, dated 2011)

How the values were obtained:
Assay type in all cases: cell-based
[1] = system: Staphylococcus aureus ATCC 25923; assay: MIC against S. aureus, microbroth dilution in MH broth, without or with 5% horse serum; settings: MIC class; S. aureus ATCC 25923
Method: (§1) Testing was conducted to determine the in vitro antimicrobial activity of a series of compounds synthesised by Alchemia Pty Ltd. The antimicrobial activity of each compound was determined at a single concentration (128 μg/mL) in Mueller Hinton (MH) broth against the ATCC type strain of Staphylococcus aureus. […] Compounds showing activity at concentrations up to 32-64 μg/mL in the presence/absence of serum were then tested for MIC activity against a standard set of 5 microorganisms comprising of ATCC type strains of MRSA, Enterococcus faecalis, Enterococcus faecium, VRE and Escherichia coli. CLSI (formerly NCCLS) microbroth dilution technique was used.
(§2) Each compound is initially dissolved in 100 μL of DMSO. Each solution is then diluted further in 0.9 mL of sterile MH broth to give a total volume of 1 mL (1000 μg/mL) This stock solution is then further diluted in MH broth to give a test solution with final concentration of 128 μg/mL using the following formula: 0.5 ml stock in 3.4 ml MH broth
(§3) Each test organism was subcultured from the −70° C. deep freezer onto horse blood agar. The plates were streaked to obtain isolated colonies and incubated at 35° C. in non-CO2 incubator for 24 hours. A second subculture was carried out onto horse blood agar. For each test organism, 1-2 colonies were selected from an 18-24 hour culture and inoculated into 2 ml sterile MH broth. The turbidity was adjusted to 0.5 McFarland standard.
(§4) A 1:10 dilution in MH broth (200 μL in 2 ml MH) of the 0.5 McFarland control was prepared. 5 μL of this diluted solution was used to inoculate the trays.
100 μL of sterile MH broth was added in columns 2-12. 200 μL of test solution was added in column 1. 100 μL was transferred in column 2 giving a ½ dilution. 100 μL from column 2 was then transferred to column 3 (¼ dilution). This dilution was carried on until column 12. A second tray containing the same test solution was inoculated in a similar manner using sterile MH broth with 5% heat inactivated horse serum. 5 μL of organism solution was then added to each well. The plates were then sealed and incubated at 35° C. in a non-CO2 incubator for 18-24 hours. The plates were examined for growth after the incubation time.
(§5) If the test organism is sensitive to the compound in the broth the growth will be inhibited. Similarly, if the organism grows on the antibiotic containing medium then it is resistant to this particular antibiotic.

[2] = system: Staphylococcus aureus (MRSA) ATCC 33591; assay: MIC against MRSA, microbroth dilution; settings: MIC class
Method: as §1, §2, §3, §4
(§6) The trays were prepared in a similar way as mentioned above and incubated at 35° C. in a non-CO2 incubator for 18-24 hours. The plates were examined for growth after the incubation time.
(§7) After 18-24 hour incubation 5 μL from each well was then inoculated onto horse blood agar and incubated for 18-24 hours at 35° C. in a non-CO2 incubator.
as §5

[3] = system: Enterococcus faecium ATCC 35667; assay: MIC against E. faecium, microbroth dilution; settings: MIC class
Method: as §1, §2, §3, §4, §6, §7, §5

E. Faecium 51299 VanB = assay: MIC against vancomycin-resistant enterococcus 51299 (VanB), microbroth dilution; settings: MIC class; ATCC 51299 VanB
Method: as §1, §2, §3, §4, §6, §7, §5

[4] = system: Enterococcus faecalis ATCC 29212; assay: MIC against E. faecalis, microbroth dilution; settings: MIC class
Method: as §1, §2, §3, §4, §6, §7, §5

| SMILES | S. Aureus 25923 activity [1] | S. Aureus 33591 MRSA activity [2] | E. Faecium 35667 activity [3] | E. Faecium 51299 VanB activity (E. Faecium 51299 VanB) | E. Fecalis 29212 activity [4] |
| --- | --- | --- | --- | --- | --- |
| CCCCCCCCCCCCC(N)C(=O)NC1C(CO)OCC(n2c(N)nc3cc(C(F)(F)F)cc(Cl)c32)C1O (centres unmarked) [Compound 187] | ++ (“++”: MIC (μg/mL): MIC ≦ 16) | ++ (“++”: MIC (μg/mL): MIC ≦ 16) | + (“+”: MIC (μg/mL): 64 ≧ MIC > 16) | ++ (“++”: MIC (μg/mL): MIC ≦ 16) | ++ (“++”: MIC (μg/mL): MIC ≦ 16) |
| NC(CC(=O)Nc1nc2cc(C(F)(F)F)ccc2n1C1C(CO)OCC(NC(=O)Nc2ccc(Cl)c(C(F)(F)F)c2)C1O)c1ccc(-c2ccccc2)cc1 (centres unmarked) [Compound 238] | − (“−”: MIC (μg/mL): MIC > 64) | ++ (“++”: MIC (μg/mL): MIC ≦ 16) | − (“−”: MIC (μg/mL): MIC > 64) | − (“−”: MIC (μg/mL): MIC > 64) | ++ (“++”: MIC (μg/mL): MIC ≦ 16) |
| NC(Cc1ccc(-c2ccccc2)cc1)C(=O)Nc1nc2cc(C(F)(F)F)ccc2n1C1C(CO)OCC(NS(=O)(=O)c2ccc(C(F)(F)F)cc2)C1O (centres unmarked) [Compound 241] | ++ (“++”: MIC (μg/mL): MIC ≦ 16) | ++ (“++”: MIC (μg/mL): MIC ≦ 16) | ++ (“++”: MIC (μg/mL): MIC ≦ 16) | + (“+”: MIC (μg/mL): 64 ≧ MIC > 16) | ++ (“++”: MIC (μg/mL): MIC ≦ 16) |
| O=C(Nc1ccc(Cl)c(C(F)(F)F)c1)NC1COC(CO)C(n2c(NCc3cccc(Oc4ccccc4)c3)nc3cc(C(F)(F)F)ccc32)C1O (centres unmarked) [Compound 249] | ++ (“++”: MIC (μg/mL): MIC ≦ 16) | ++ (“++”: MIC (μg/mL): MIC ≦ 16) | ++ (“++”: MIC (μg/mL): MIC ≦ 16) | ++ (“++”: MIC (μg/mL): MIC ≦ 16) | ++ (“++”: MIC (μg/mL): MIC ≦ 16) |
| Nc1nc2cc(C(F)(F)F)cc(Cl)c2n1C1COC(CO)C(NC(=O)C(N)Cc2ccc(-c3ccccc3)cc2)C1O (centres unmarked) [Compound 163] | + (“+”: MIC (μg/mL): 64 ≧ MIC > 16) | + (“+”: MIC (μg/mL): 64 ≧ MIC > 16) | − (“−”: MIC (μg/mL): MIC > 64) | − (“−”: MIC (μg/mL): MIC > 64) | + (“+”: MIC (μg/mL): 64 ≧ MIC > 16) |
| O=C(Nc1ccc(Cl)c(C(F)(F)F)c1)NC1COC(CO)C(n2c(NCc3ccccc3)nc3cc(C(F)(F)F)cc(Cl)c32)C1O (centres unmarked) [Compound 255] | ++ (“++”: MIC (μg/mL): MIC ≦ 16) | ++ (“++”: MIC (μg/mL): MIC ≦ 16) | − (“−”: MIC (μg/mL): MIC > 64) | + (“+”: MIC (μg/mL): 64 ≧ MIC > 16) | ++ (“++”: MIC (μg/mL): MIC ≦ 16) |
| Nc1ccccc1OC1C(NS(=O)(=O)c2ccc(C(F)(F)F)cc2)COC(CO)C1NC(=O)C(N)Cc1ccc(-c2ccccc2)cc1 (centres unmarked) [Compound 79] | + (“+”: MIC (μg/mL): 64 ≧ MIC > 16) | + (“+”: MIC (μg/mL): 64 ≧ MIC > 16) | − (“−”: MIC (μg/mL): MIC > 64) | − (“−”: MIC (μg/mL): MIC > 64) | − (“−”: MIC (μg/mL): MIC > 64) |
| CCCCCCCCCCCCC(N)C(=O)NC1C(CO)OCC(n2c(O)nc3cc(C(F)(F)F)cc(Cl)c32)C1O (centres unmarked) [Compound 185] | + (“+”: MIC (μg/mL): 64 ≧ MIC > 16) | ++ (“++”: MIC (μg/mL): MIC ≦ 16) | ++ (“++”: MIC (μg/mL): MIC ≦ 16) | + (“+”: MIC (μg/mL): 64 ≧ MIC > 16) | ++ (“++”: MIC (μg/mL): MIC ≦ 16) |
| O=C(Nc1ccc(Cl)c(C(F)(F)F)c1)NC1COC(CO)C(n2c(NCc3ccccc3)nc3cc(C(F)(F)F)ccc32)C1O (centres unmarked) [Compound 246] | ++ (“++”: MIC (μg/mL): MIC ≦ 16) | ++ (“++”: MIC (μg/mL): MIC ≦ 16) | + (“+”: MIC (μg/mL): 64 ≧ MIC > 16) | + (“+”: MIC (μg/mL): 64 ≧ MIC > 16) | ++ (“++”: MIC (μg/mL): MIC ≦ 16) |
| CCCCCCCCCCCCC(N)C(=O)NC1C(CO)OCC(n2c(O)nc3cc(C(F)(F)F)ccc32)C1O (centres unmarked) [Compound 181] | + (“+”: MIC (μg/mL): 64 ≧ MIC > 16) | ++ (“++”: MIC (μg/mL): MIC ≦ 16) | + (“+”: MIC (μg/mL): 64 ≧ MIC > 16) | + (“+”: MIC (μg/mL): 64 ≧ MIC > 16) | + (“+”: MIC (μg/mL): 64 ≧ MIC > 16) |
| O=C(Nc1ccc(Cl)c(C(F)(F)F)c1)NC1COC(CO)C(n2c(Nc3ccc(C(F)(F)F)cc3)nc3cc(C(F)(F)F)cc(Cl)c32)C1O (centres unmarked) [Compound 253] | − (“−”: MIC (μg/mL): MIC > 64) | − (“−”: MIC (μg/mL): MIC > 64) | − (“−”: MIC (μg/mL): MIC > 64) | − (“−”: MIC (μg/mL): MIC > 64) | + (“+”: MIC (μg/mL): 64 ≧ MIC > 16) |
| CCCCCCCCCCCCC(N)C(=O)NC1C(CO)OCC(n2cnc3cc(C(F)(F)F)cc(Cl)c32)C1O (centres unmarked) [Compound 188] | + (“+”: MIC (μg/mL): 64 ≧ MIC > 16) | + (“+”: MIC (μg/mL): 64 ≧ MIC > 16) | − (“−”: MIC (μg/mL): MIC > 64) | + (“+”: MIC (μg/mL): 64 ≧ MIC > 16) | + (“+”: MIC (μg/mL): 64 ≧ MIC > 16) |
| Nc1ccccc1OC1C(NC(=O)Nc2ccc(Cl)c(C(F)(F)F)c2)COC(CO)C1NC(=O)c1ccc(-c2ccccc2)cc1 (centres unmarked) [Compound 69] | + (“+”: MIC (μg/mL): 64 ≧ MIC > 16) | − (“−”: MIC (μg/mL): MIC > 64) | − (“−”: MIC (μg/mL): MIC > 64) | − (“−”: MIC (μg/mL): MIC > 64) | − (“−”: MIC (μg/mL): MIC > 64) |
| Nc1cc(C(F)(F)F)cc(Cl)c1NC1COC(CO)C(NC(=O)c2ccc(-c3ccccc3)cc2)C1O (centres unmarked) [Compound 200] | − (“−”: MIC (μg/mL): MIC > 64) | + (“+”: MIC (μg/mL): 64 ≧ MIC > 16) | − (“−”: MIC (μg/mL): MIC > 64) | − (“−”: MIC (μg/mL): MIC > 64) | − (“−”: MIC (μg/mL): MIC > 64) |
| O=C(NC1C(CO)OCC(n2cnc3cc(C(F)(F)F)cc(Cl)c32)C1O)c1ccc(-c2ccccc2)cc1 (centres unmarked) [Compound 156] | + (“+”: MIC (μg/mL): 64 ≧ MIC > 16) | − (“−”: MIC (μg/mL): MIC > 64) | + (“+”: MIC (μg/mL): 64 ≧ MIC > 16) | − (“−”: MIC (μg/mL): MIC > 64) | − (“−”: MIC (μg/mL): MIC > 64) |
| O=C(Nc1ccc(Cl)c(C(F)(F)F)c1)NC1COC(CO)C(n2c(NCc3ccc(Cl)cc3)nc3cc(C(F)(F)F)cc(Cl)c32)C1O (centres unmarked) [Compound 256] | − (“−”: MIC (μg/mL): MIC > 64) | − (“−”: MIC (μg/mL): MIC > 64) | − (“−”: MIC (μg/mL): MIC > 64) | ++ (“++”: MIC (μg/mL): MIC ≦ 16) | ++ (“++”: MIC (μg/mL): MIC ≦ 16) |
